Results from patent publication US10093611B2, “Benzocycloalkenes as antifungal agents” (Bayer Intellectual Property GmbH, priority 2010, dated 2018).

Assays:
Septoria tritici = experiment: In vivo preventive test on Septoria tritici (wheat); settings: 500 ppm of active ingredient, evaluated 21 days after inoculation
Protocol: EXAMPLE G: IN VIVO PREVENTIVE TEST ON SEPTORIA TRITICI (WHEAT) Solvent: 49 parts by weight of N,N-dimethylacetamide Emulsifier: 1 part by weight of alkylaryl polyglycol ether To produce a suitable preparation of active compound, 1 part by weight of active compound or active compound combination is mixed with the stated amounts of solvent and emulsifier, and the concentrate is diluted with water to the desired concentration. To test for preventive activity, young plants are sprayed with the preparation of active compound or active compound combination at the stated rate of application. After the spray coating has dried on, the plants are sprayed with a spore suspension of Septoria tritici. The plants remain for 48 hours in an incubation cabinet at approximately 20° C. and a relative atmospheric humidity of approximately 100% and then 60 hours at approximately 15° C. in a translucent incubation cabinet at a relative atmospheric humidity of approximately 100%. The plants are placed in a greenhouse at a temperature of approximately 15° C. and a relative atmospheric humidity of approximately 80%. The test is evaluated 21 days after the inoculation. 0% means an efficacy which corresponds to that of the control, while an efficacy of 100% means that no disease is observed. Under these conditions, total protection is observed at a dose of 500 ppm of active ingredient with the following compounds from table G: […]

Pyrenophora teres = experiment: In vivo preventive test on Pyrenophora teres (barley); settings: 500 ppm of active ingredient, evaluated 7-9 days after inoculation
Protocol: EXAMPLE F: IN VIVO PREVENTIVE TEST ON PYRENOPHORA TERES (BARLEY) Solvent: 49 parts by weight of N,N-dimethylformamide Emulsifier: 1 part by weight of Alkylarylpolyglycolether To produce a suitable preparation of active compound, 1 part by weight of active compound is mixed with the stated amounts of solvent and emulsifier, and the concentrate is diluted with water to the desired concentration. To test for preventive activity, young plants are sprayed with the preparation of active compound at the stated rate of application. One day after this treatment, the plants are inoculated with an aqueous spore suspension of Pyrenophora teres. The plants remain for 48 hours in an incubation cabinet at 22° C. and a relative atmospheric humidity of 100%. Then the plants are placed in a greenhouse at a temperature of approximately 20° C. and a relative atmospheric humidity of approximately 80%. The test is evaluated 7-9 days after the inoculation. 0% means an efficacy which corresponds to that of the untreated control while an efficacy of 100% means that no disease is observed. Under these conditions, high (at least 90%) to total protection is observed at a dose of 500 ppm of active ingredient with the following compounds from table F: […]

[1] = log P by HPLC on reversed-phase column (C 18), EEC Directive 79/831 Annex V.A8; assay type: physicochemical; settings: C 18 reversed phase, 40° C., 0.1% aqueous formic acid and acetonitrile gradient
Protocol: In table 1, the log P values were determined in accordance with EEC Directive 79/831 Annex V.A8 by HPLC (High Performance Liquid Chromatography) on a reversed-phase column (C 18), using the method described below: Temperature: 40° C.; Mobile phases: 0.1% aqueous formic acid and acetonitrile; linear gradient from 10% acetonitrile to 90% acetonitrile. Calibration was carried out using unbranched alkan-2-ones (comprising 3 to 16 carbon atoms) with known log P values (determination of the log P values by the retention times using linear interpolation between two successive alkanones). lambda-max-values were determined using UV-spectra from 200 nm to 400 nm and the peak values of the chromatographic signals.

[2] = system: Fusarium nivale (var. majus); experiment: In vivo curative test on Fusarium nivale (var. majus) (wheat); settings: 500 ppm of active ingredient, evaluated 5 days after inoculation
Protocol: EXAMPLE C: IN VIVO CURATIVE TEST ON FUSARIUM NIVALE (VAR. MAJUS) (WHEAT) Solvent: 49 parts by weight of N,N-dimethylacetamide Emulsifier: 1 part by weight of alkylaryl polyglycol ether To produce a suitable preparation of active compound, 1 part by weight of active compound or active compound combination is mixed with the stated amounts of solvent and emulsifier, and the concentrate is diluted with water to the desired concentration. To test for curative activity, young plants are slightly injured by using a sandblast and afterwards they are sprayed with a conidia suspension of Fusarium nivale (var. majus) and placed for 24 hours in a greenhouse under a translucent incubation cabinet at a temperature of approximately 10° C. and a relative atmospheric humidity of approximately 100% and are subsequently sprayed with the preparation of active compound at the stated rate of application. After the spray coating has been dried, the plants remain in the greenhouse under translucent incubation cloches at a temperature of approximately 10° C. and a relative atmospheric humidity of approximately 100%. The test is evaluated 5 days after the inoculation. 0% means an efficacy which corresponds to that of the untreated control, while an efficacy of 100% means that no disease is observed. Under these conditions, total protection is observed at a dose of 500 ppm of active ingredient with the following compounds from table C: […]

Alternaria solani = experiment: In vivo preventive test on Alternaria solani (tomato); settings: 500 ppm of active ingredient, evaluated 7 days after inoculation
Protocol: EXAMPLE A: IN VIVO PREVENTIVE TEST ON ALTERNARIA SOLANI (TOMATO) Solvent: 49 parts by weight of N,N-dimethylformamide Emulsifier: 1 part by weight of Alkylarylpolyglycolether To produce a suitable preparation of active compound, 1 part by weight of active compound is mixed with the stated amounts of solvent and emulsifier, and the concentrate is diluted with water to the desired concentration. To test for preventive activity, young plants are sprayed with the preparation of active compound at the stated rate of application. One day after this treatment, the plants are inoculated with an aqueous spore suspension of Alternaria solani. The plants remain for one day in an incubation cabinet at approximately 22° C. and a relative atmospheric humidity of 100%. Then the plants are placed in an incubation cabinet at approximately 20° C. and a relative atmospheric humidity of 96%. The test is evaluated 7 days after the inoculation. 0% means an efficacy which corresponds to that of the control while an efficacy of 100% means that no disease is observed. Under these conditions, good (at least 80%) to total protection is observed at a dose of 500 ppm of active ingredient with the following compounds from table A: […]

Cc1nn(C)c(F)c1C(=O)N(C1CC1)C(C)C1Cc2ccccc2C1 (stereo not drawn) [Example 11]
Efficacy (Septoria tritici): 100%
Efficacy (Pyrenophora teres): 100%
logP [1]: 3.25
Efficacy [2]: 100%
Efficacy (Alternaria solani): 100%

CCc1nn(C)c(F)c1C(=O)N(C1CC1)C(C)C1Cc2ccccc2C1 (stereo not drawn) [Example 12]
Efficacy (Septoria tritici): 100%
Efficacy (Pyrenophora teres): 100%
logP [1]: 3.67
Efficacy [2]: 100%
Efficacy (Alternaria solani): 100%

CC(C1Cc2ccccc2C1)N(C(=O)c1cn(C)nc1C(F)F)C1CC1 (stereo not drawn) [Example 13]
Efficacy (Septoria tritici): 100%
Efficacy (Pyrenophora teres): 100%
logP [1]: 3.33
Efficacy [2]: 100%
Efficacy (Alternaria solani): 100%

CC(C1Cc2ccccc2C1)N(C(=O)c1c(C(F)F)nn(C)c1F)C1CC1 (stereo not drawn) [Example 14, N-cyclopropyl-3-(difluoromethyl)-N-[1-(indan-2-yl)ethyl]-5-fluoro-1-methyl-1H-pyrazole-4-carboxamide]
Efficacy (Septoria tritici): 100%
Efficacy (Pyrenophora teres): 100%
chromatographic logP ([1]; reversed-phase HPLC column (C 18)): 3.76
Efficacy [2]: 100%
Efficacy (Alternaria solani): 95%

CC(C1CCc2ccccc2C1)N(C(=O)c1c(C(F)F)nn(C)c1F)C1CC1 (stereo not drawn) [Example 16]
Efficacy (Septoria tritici): 100%
Efficacy (Pyrenophora teres): 100%
logP [1]: 3.99
Efficacy [2]: 100%
Efficacy (Alternaria solani): 95%

CCC(C1CCc2ccccc2C1)N(C(=O)c1c(C(F)F)nn(C)c1F)C1CC1 (stereo not drawn) [Example 17]
Efficacy (Septoria tritici): 100%
Efficacy (Pyrenophora teres): 100%
logP [1]: 4.41
Efficacy [2]: 100%
Efficacy (Alternaria solani): 80%
